Assay type in all cases: binding
Experiment [1] concerns the target T1, HeLa cell extract proteins (Homo sapiens, UniProt Q9BVS4).
T1 construct: endogenous in cells; host or cells: HeLa cell extract

In experiment [2] the target is T2, HeLa cell extract proteins (Homo sapiens, UniProt Q9Y6D5).
T2 construct: endogenous in cells; host or cells: HeLa cell extract

The target of experiment [3] is T3, HeLa cell extract proteins (Homo sapiens, UniProt P43686).
T3 construct: endogenous in cells; host or cells: HeLa cell extract

Experiment [4] addresses T4, HeLa cell extract proteins (Homo sapiens, UniProt Q5T8D3).
T4 construct: endogenous in cells; host or cells: HeLa cell extract
T4 sequence (Q5T8D3 1-534): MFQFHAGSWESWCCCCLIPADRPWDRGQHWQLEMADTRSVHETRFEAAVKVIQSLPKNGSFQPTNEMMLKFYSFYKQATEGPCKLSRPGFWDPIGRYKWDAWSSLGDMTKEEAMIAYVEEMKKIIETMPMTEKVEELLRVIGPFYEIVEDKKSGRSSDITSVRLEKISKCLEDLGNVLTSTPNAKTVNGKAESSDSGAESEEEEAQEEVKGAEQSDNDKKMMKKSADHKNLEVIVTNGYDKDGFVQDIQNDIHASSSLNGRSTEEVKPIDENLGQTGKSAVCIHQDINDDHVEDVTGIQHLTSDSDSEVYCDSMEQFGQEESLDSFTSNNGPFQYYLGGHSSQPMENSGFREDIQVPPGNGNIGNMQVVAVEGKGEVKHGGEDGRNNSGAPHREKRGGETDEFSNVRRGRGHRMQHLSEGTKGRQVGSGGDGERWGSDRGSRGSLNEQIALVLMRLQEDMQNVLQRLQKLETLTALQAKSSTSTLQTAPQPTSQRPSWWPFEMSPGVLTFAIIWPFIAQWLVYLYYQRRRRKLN

The target of experiment [5] is T5, HeLa cell extract proteins (Homo sapiens, UniProt O75694).
T5 construct: endogenous in cells; host or cells: HeLa cell extract
T5 sequence (O75694 1-1391): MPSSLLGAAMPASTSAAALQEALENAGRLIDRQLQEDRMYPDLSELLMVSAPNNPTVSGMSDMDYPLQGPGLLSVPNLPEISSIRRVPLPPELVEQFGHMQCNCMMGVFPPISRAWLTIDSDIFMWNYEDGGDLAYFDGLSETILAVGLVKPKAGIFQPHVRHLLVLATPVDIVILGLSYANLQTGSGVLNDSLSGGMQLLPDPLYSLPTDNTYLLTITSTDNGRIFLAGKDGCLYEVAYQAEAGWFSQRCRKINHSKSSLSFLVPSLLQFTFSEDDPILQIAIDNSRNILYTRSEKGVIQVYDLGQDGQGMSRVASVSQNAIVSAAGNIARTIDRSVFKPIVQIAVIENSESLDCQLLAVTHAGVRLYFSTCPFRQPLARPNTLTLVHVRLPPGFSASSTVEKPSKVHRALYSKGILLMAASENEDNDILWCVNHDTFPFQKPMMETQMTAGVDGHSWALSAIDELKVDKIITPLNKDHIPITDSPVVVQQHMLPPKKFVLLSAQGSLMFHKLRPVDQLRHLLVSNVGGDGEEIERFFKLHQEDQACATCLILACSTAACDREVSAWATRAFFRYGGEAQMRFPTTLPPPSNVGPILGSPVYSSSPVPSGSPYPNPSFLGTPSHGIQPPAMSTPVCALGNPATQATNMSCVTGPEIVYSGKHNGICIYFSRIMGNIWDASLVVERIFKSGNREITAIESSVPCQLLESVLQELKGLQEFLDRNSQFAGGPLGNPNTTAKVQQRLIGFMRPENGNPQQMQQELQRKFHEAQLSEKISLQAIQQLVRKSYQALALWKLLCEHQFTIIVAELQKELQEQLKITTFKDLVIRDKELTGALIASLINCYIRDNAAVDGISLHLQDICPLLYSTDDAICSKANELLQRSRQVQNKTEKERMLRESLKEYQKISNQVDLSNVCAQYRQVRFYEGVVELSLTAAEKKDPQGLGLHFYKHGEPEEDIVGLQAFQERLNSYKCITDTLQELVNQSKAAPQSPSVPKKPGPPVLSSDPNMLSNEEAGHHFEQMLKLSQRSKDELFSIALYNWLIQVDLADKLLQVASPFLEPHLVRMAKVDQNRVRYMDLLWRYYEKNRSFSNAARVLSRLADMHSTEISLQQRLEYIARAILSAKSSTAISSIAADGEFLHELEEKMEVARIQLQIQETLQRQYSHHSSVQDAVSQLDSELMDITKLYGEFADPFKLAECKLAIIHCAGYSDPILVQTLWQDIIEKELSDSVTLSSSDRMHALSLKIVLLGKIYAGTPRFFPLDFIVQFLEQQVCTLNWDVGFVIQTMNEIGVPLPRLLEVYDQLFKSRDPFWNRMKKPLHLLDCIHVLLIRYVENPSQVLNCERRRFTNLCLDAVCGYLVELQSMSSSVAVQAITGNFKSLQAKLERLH

Experiment [6] concerns the target T6, HeLa cell extract proteins (Homo sapiens, UniProt P68104).
T6 construct: endogenous in cells; host or cells: HeLa cell extract
T6 sequence (P68104 1-462): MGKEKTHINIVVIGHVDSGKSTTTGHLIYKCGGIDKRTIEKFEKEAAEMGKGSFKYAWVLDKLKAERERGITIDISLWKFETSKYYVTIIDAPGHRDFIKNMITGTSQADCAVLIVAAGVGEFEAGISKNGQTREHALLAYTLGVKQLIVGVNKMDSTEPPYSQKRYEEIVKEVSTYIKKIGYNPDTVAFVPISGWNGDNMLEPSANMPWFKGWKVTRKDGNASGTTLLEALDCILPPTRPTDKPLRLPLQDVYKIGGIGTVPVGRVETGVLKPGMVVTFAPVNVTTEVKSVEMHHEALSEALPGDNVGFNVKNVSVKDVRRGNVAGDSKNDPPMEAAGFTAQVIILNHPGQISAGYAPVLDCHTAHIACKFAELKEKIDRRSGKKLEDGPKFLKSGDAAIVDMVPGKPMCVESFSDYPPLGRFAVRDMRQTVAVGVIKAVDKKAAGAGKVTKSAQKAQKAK

Read-outs that look alike come from different tables or passages of the source.

T3 sequence (P43686 whole entry): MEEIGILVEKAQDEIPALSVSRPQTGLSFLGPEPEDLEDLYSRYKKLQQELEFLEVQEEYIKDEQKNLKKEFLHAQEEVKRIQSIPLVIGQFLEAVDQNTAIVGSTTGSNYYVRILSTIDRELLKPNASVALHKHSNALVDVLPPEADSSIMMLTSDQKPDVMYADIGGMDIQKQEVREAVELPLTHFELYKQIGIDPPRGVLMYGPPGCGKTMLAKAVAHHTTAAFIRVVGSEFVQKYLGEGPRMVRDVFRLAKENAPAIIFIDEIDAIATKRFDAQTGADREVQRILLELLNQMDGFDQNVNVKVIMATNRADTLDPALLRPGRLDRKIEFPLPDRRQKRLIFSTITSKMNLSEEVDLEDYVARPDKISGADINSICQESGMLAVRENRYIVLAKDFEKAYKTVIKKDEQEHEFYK
T1 sequence (Q9BVS4 whole entry): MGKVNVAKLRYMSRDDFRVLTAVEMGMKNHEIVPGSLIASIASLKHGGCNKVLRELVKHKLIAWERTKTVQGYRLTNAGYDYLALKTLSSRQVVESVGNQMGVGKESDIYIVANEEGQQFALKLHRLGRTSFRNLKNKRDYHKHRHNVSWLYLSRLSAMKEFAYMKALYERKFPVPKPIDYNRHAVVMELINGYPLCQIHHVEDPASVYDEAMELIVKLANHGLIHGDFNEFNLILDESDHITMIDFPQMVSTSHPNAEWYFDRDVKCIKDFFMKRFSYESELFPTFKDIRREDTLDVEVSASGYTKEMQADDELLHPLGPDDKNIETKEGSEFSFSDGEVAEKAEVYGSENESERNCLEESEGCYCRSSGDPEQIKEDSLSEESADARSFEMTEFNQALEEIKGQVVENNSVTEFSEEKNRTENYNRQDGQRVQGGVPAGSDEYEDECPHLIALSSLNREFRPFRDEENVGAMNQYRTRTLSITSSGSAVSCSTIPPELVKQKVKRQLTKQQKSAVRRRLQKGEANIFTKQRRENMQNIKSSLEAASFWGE
T2 sequence (Q9Y6D5 whole entry): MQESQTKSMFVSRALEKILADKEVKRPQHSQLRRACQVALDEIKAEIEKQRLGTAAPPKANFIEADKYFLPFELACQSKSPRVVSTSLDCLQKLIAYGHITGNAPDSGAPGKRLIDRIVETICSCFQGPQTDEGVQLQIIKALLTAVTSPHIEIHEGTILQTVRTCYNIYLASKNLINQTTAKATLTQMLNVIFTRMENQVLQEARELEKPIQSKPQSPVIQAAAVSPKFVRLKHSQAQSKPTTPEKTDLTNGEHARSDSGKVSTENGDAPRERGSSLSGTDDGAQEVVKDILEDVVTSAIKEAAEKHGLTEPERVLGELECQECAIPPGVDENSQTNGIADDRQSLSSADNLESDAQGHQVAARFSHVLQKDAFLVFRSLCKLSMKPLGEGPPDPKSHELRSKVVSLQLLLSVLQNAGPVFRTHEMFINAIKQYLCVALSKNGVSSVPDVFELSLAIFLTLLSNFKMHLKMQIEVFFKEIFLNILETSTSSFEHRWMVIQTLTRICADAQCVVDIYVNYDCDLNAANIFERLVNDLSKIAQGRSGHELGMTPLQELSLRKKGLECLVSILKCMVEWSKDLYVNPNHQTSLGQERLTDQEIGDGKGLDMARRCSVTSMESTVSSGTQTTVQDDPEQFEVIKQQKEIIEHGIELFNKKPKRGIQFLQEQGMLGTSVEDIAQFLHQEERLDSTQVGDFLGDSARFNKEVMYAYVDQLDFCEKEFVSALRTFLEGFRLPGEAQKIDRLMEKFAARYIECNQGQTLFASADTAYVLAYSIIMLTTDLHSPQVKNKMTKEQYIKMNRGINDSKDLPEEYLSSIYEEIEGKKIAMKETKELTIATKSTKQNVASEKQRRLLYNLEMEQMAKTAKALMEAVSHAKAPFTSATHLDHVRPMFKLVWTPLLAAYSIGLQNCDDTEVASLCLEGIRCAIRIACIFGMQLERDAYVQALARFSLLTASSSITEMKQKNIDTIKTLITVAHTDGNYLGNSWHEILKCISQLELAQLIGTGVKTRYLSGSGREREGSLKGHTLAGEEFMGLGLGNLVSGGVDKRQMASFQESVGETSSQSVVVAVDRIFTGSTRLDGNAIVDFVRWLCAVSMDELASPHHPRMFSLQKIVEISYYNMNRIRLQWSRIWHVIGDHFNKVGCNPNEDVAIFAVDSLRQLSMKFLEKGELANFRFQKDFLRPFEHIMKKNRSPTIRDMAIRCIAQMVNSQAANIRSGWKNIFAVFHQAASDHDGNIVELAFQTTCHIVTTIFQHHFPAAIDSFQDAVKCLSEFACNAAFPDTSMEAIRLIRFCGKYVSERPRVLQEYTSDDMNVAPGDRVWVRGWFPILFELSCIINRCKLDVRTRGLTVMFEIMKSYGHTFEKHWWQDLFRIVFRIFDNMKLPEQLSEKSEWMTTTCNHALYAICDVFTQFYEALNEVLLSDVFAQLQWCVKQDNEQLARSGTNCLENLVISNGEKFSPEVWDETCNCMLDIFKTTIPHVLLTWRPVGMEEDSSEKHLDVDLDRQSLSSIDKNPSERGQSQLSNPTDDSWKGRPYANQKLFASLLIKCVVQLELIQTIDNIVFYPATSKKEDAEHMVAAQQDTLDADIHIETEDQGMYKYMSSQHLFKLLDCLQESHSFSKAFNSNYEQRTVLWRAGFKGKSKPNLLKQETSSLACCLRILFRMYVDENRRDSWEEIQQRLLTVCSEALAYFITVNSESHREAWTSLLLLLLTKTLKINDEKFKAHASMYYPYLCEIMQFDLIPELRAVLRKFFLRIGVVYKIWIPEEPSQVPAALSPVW

Take `CCCCCCOc1cccc(Cc2cnc(N)nc2N)c1` [compound 2]: the “fold changes relative to vehicle control” value came out at 0.95 in experiment [1] (captured protein RIOK2, HeLa); 1.11 in experiment [2] (HeLa, protein ARFGEF2); 1.33 in experiment [3] (protein PSMC4, HeLa); 1.13 in experiment [4] (HeLa, protein ACBD5); 1.01 in experiment [5] (HeLa, protein NUP155); 1.47 in experiment [6] (protein EEF1A1, HeLa).

Take `NCCOCCOCC(=O)Nc1nc2ncc(CNc3ccc(C(=O)NC(CCC(=O)O)C(=O)O)cc3)nc2c(=O)[nH]1` (stereo not drawn) [compound 6]: the “fold changes relative to vehicle control” value is 0.82 in experiment [1] (HeLa, protein RIOK2); 1.15 in experiment [2] (HeLa, protein ARFGEF2); 1.13 in experiment [3] (protein PSMC4, HeLa); 1.09 in experiment [4] (HeLa, captured protein ACBD5); 0.92 in experiment [5] (HeLa, protein NUP155); 0.99 in experiment [6] (HeLa, captured protein EEF1A1).

Consider `CCCCCCOc1ccc(Cc2cnc(N)nc2N)cc1` [compound 1], for which the “fold changes relative to vehicle control” value is 0.94 in experiment [1] (captured protein RIOK2, HeLa); 1.04 in experiment [2] (HeLa, protein ARFGEF2); 1.13 in experiment [3] (protein PSMC4, HeLa); 1.13 in experiment [4] (HeLa, protein ACBD5); 1.04 in experiment [5] (HeLa, protein NUP155); 1.17 in experiment [6] (protein EEF1A1, HeLa).

On to `Nc1nc2c(c(=O)[nH]1)N(C=O)C(CNc1ccc(C(=O)N[C@@H](CCC(=O)O)C(=O)O)cc1)CN2` (stereo partly drawn) [LEU, leucovorin], for which the “fold changes relative to vehicle control” value stood at 0.84 in experiment [1] (HeLa, protein RIOK2); 1.01 in experiment [2] (HeLa, protein ARFGEF2); 0.97 in experiment [3] (protein PSMC4, HeLa); 1.01 in experiment [4] (HeLa, captured protein ACBD5); 0.87 in experiment [5] (HeLa, protein NUP155); 1.01 in experiment [6] (HeLa, captured protein EEF1A1).

For `NCCCNc1ccc(C(=O)NC(CCC(=O)O)C(=O)O)cc1` (stereo not drawn) [compound 7], the “fold changes relative to vehicle control” value in experiment [1] (HeLa, protein RIOK2) turned out to be 0.87; in experiment [2] (HeLa, protein ARFGEF2), 1.17; in experiment [3] (protein PSMC4, HeLa), 0.98; in experiment [4] (HeLa, captured protein ACBD5), 1.03; in experiment [5] (HeLa, protein NUP155), 1.03; in experiment [6] (HeLa, captured protein EEF1A1), 0.93.

As to `Nc1nc2[nH]cc(CCc3ccc(C(=O)N[C@@H](CCC(=O)O)C(=O)O)cc3)c2c(=O)[nH]1` [PTX, pemetrexed], the “fold changes relative to vehicle control” value is reported as 0.33 in experiment [1]; 1.01 in experiment [2]; 1.01 in experiment [3]; 0.88 in experiment [4]; 0.92 in experiment [5]; 0.93 in experiment [6].

Turning to `Nc1nc2cccc(-c3ccccc3)c2n1Cc1ccc(Cl)c(Cl)c1` [compound 3], the “fold changes relative to vehicle control” value in experiment [1] (captured protein RIOK2, HeLa) is listed as 0.95; in experiment [2] (HeLa, protein ARFGEF2) it was 0.95; in experiment [3] (protein PSMC4, HeLa) it was 1.04; in experiment [4] (HeLa, protein ACBD5), 0.92; in experiment [5] (HeLa, protein NUP155), 1.2; in experiment [6] (protein EEF1A1, HeLa) it was 0.97.

The values are drawn from paper PMC6199744, “Development of Chemical Proteomics for the Folateome and Analysis of the Kinetoplastid Folateome” (ACS Infectious Diseases, 2018).
